Assay results as given in patent US20250110113A1, “HUMAN ORGAN-ON-A-CHIP HAVING REVERSE MICRO-WEIR STRUCTURE AND USES THEREOF” (HUMANASE, priority 2022, published 2025).

Columns and labels:
Assay type in all cases: cell-based, human
[1] = system: cervical cancer cells (HeLa); test: Organ-on-a-chip containing cervical cancer cells, doxorubicin treatment, optical microscope; settings: 100 μM doxorubicin in media supply chamber; 24 hours after treatment; HeLa cultured 2 days on chip; compared with control group
Experimental: (§1) As for one set of a media supply chamber and a media recovery chamber included in the organ-on-a-chip of the present invention fabricated in Example 1, 200 μl of media (Dulbecco Modified Eagle Medium (DMEM, Gibco) supplemented with 10% FBS) was loaded in each of the chambers. The flow of media was connected between each chamber by using a pipette, and then the media was filled inside the media channel located at both sides to finally form the flow of media. Particularly, it was confirmed that a boundary of the media was formed between the media channel and the cell chamber due to surface tension, with the inverted micro-weir structure serving as a boundary.
Then, 3×10^4 cervical cancer cells (HeLa) were injected into the cell inlet by using a pipette, and the injected cervical cancer cells (HeLa) were injected into the cell chamber by pipetting. […] Subsequently, the cells were cultured in a humidified incubator for 2 days under the conditions of 37° C. and 5% CO2.
(§2) After 100 μM doxorubicin was added to the media supply chamber of the organ-on-a-chip containing cervical cancer cells (HeLa) fabricated in Example 2-2-1, a change in cervical cancer cells in the organ-on-a-chip due to doxorubicin was observed using an optical microscope, and the degree of damage to the cervical cancer cells was compared and analyzed with a control group (FIG. 7). […]

[2] = system: breast cancer cells (MCF-7); test: Organ-on-a-chip containing breast cancer cells, doxorubicin treatment, optical microscope; settings: 100 μM doxorubicin in media supply chamber; 24 hours after treatment; MCF-7 cultured 2 days on chip; compared with control group
Experimental: as §1, with “(RPMI 1640 (Gibco)” for “(Dulbecco Modified Eagle Medium (DMEM, Gibco)”, “fetal bovine serum (FBS, Gibco))” for “FBS)”
Then, 3×10^4 breast cancer cells (Michigan Cancer Foundation-7, MCF-7) were injected into the cell inlet by using a pipette, and the injected breast cancer cells were injected into the cell chamber by pipetting. […] Subsequently, the cells were cultured in a humidified incubator for 2 days under the conditions of 37° C. and 5% CO2.
After 100 μM doxorubicin (TOCRIS) was added to the media supply chamber of the organ-on-a-chip containing breast cancer cells fabricated in Example 2-1-1, a change in breast cancer cells in the organ-on-a-chip due to doxorubicin was observed using an optical microscope, and the degree of damage to the breast cancer cells was compared and analyzed with a control group (FIG. 6). […]

[3] = system: liver cancer cells (HepG2); test: Organ-on-a-chip containing liver cancer cells, doxorubicin treatment, optical microscope; settings: 100 μM doxorubicin in media supply chamber; 24 hours after treatment; HepG2 cultured 2 days on chip; compared with control group
Experimental: As for one set of a media supply chamber and a media recovery chamber included in the organ-on-a-chip of the present invention fabricated in Example 1, 200 μl of media (Minimum Essential Media Eagle (MEM, high-glucose, Gibco) supplemented with 25 mM HEPES (4-(2-hydroxyethyl)-1-piperazineethanesulfonic acid, Gibco), 25 mM NaHCO3 (Sodium bicarbonate, Sigma-Aldrich), 10% (v/v) FBS, and P/S (100 Uml-1penicillin/100 Uml-1streptomycin, Sigma-Aldrich Co., MO)) was loaded in each of the chambers. The flow of media was connected between each chamber by using a pipette, and then the media was filled inside the media channel located at both sides to finally form the flow of media. Particularly, it was confirmed that a boundary of the media was formed between the media channel and the cell chamber due to surface tension, with the inverted micro-weir structure serving as a boundary. […]
as §2, with “liver” for “cervical”, “(HepG2)” for “(HeLa)”, “2-3-1,” for “2-2-1,”, “of liver” for “in cervical”, “8).” for “7).”

## COc1cccc2c1C(=O)c1c(O)c3c(c(O)c1C2=O)C[C@@](O)(C(=O)CO)C[C@@H]3O[C@H]1C[C@H](N)[C@H](O)[C@H](C)O1 [doxorubicin]
[1]
  degree of damage to the cervical cancer cells (cell death): most of the cervical cancer cells cultured in the organ-on-a-chip were dead
[2]
  degree of damage to the breast cancer cells (cell death): most of the breast cancer cells cultured in the organ-on-a-chip were dead
[3]
  degree of damage to the liver cancer cells (cell death): most of the liver cancer cells cultured in the organ-on-a-chip were dead
